Measured values reported in patent publication US12427175B2, “Fecal fungome and therapeutic efficacy of fecal microbiota transplantation” (priority 2018, dated 2025).
“Also recorded” adds a separate entry of the source.

Columns and labels:
gut bacterial microbiota = experiment: Bacterial 16S rRNA sequencing of fecal DNA (bacterial microbiota diversity, richness); format: in vivo, human; conditions: responders
Procedure: (§1) Fecal DNA was isolated as described below. 100 mg fecal sample was pre-washed with 1 ml ddH2O and pelleted by centrifugation at 10,000×g for 1 minute. The fecal pellet was re-suspended in 800 μl TE buffer (pH 7.5), supplemented with 1.6 μl 2-Mercaptoethanol and 500 U lyticase (Sigma), and incubated at 37° C. for 60 min. The sample was then centrifuged at 10,000×g for 2 minutes and fecal DNA was subsequently extracted from the pellet using ZR Fecal DNA miniPrep kit (Zymo Research, Orange, CA) according to the protocol. Briefly, fecal pellet was added to the BashingBeadLysis Tube with 750 μl Lysis solution, and then processed at maximum speed for 10 minutes. The lysates were centrifuged at ≥10,000×g for 1 minute. The supernatant was transferred to a Zymo-Spin™ IV Spin Filter in a collection tube and centrifuged at 7,000×g for 1 minute. About 1,200 μl of fecal DNA binding buffer was added to the filtrate in the collection tube, followed by concentration and purification in a new filter tube. Finally, a total of 50 μl eluted DNA with a concentration at 20-100 ng/μl was prepared for each sample.
The final fecal DNA samples were subject to bacterial 16S rRNA V4 region amplification and sequenced on the Illumina MiSeq PE250 platform (2×250 bp, BGI, China), 132,081±65,429 (number±SD) sequences obtained on average (sequence statistics in Table 5). […]

[1] = test system: Clostridium difficile infection (CDI); experiment: Randomised controlled trial of FMT versus vancomycin (STD) in patients with CDI: treatment outcome; format: in vivo, human
Procedure: The current study was a sub-study from a randomised controlled trial (RCT) of FMT versus vancomycin (standard therapy, STD) for patients with CDI. Consecutive CDI subjects enrolled into this randomised controlled trial were invited to participate in a substudy of assessment of fecal microbiota. Patients were included if they had three or more loose or watery stools per day for at least two consecutive days or eight or more soft or loose stools in 48 hours and a positive stool test for C. difficile based on a two-step testing algorithm in our hospital, a positive GDH (Glutamate dehydrogenase) screening test followed by a positive polymerase chain reaction (PCR) test of C. difficile. A total of 31 subjects with CDI and 24 healthy household controls were recruited and stool samples at baseline were obtained for analyses of fungal and bacterial microbiomes. Among them, 24 CDI subjects consented to have stool samples collected serially after treatment for microbiome analysis. 16 CDI subjects were treated with FMT and 8 were treated with vancomycin, and they were followed up at baseline and at weeks 2, 4, 10 and 16 after treatment (FIG. 6). Subjects in the FMT group received 5 days of vancomycin followed by donor infused stool via nasojejunal route and those who had STD received oral vancomycin 500 mg orally four times per day for 10 days. A computer-generated randomization schedule was used to assign patients to the treatment sequences. All patients kept a stool diary and were questioned about stool frequency and consistency and medication use.
Treatment response was defined as an absence of diarrhea or persistent diarrhea that could be explained by other causes with a negative stool test for C. difficile toxin, while relapse was defined as diarrhea with a positive stool test for C. difficile toxin. […]
In subjects who received FMT, a nasoduodenal tube was inserted with radiology guidance. […] The tube was removed 30 minutes after the infusion, and patients were monitored for 2 hours. […]

gut mycobiota = experiment: Fungal ITS2 sequencing of fecal DNA (gut mycobiota diversity, richness, composition); format: in vivo, human
Procedure: as §1
The final fecal DNA for fungal sequencing was amplified based upon ITS2 (Internal transcribed spacer 2) region using primers as below and PrimeSTAR HS DNA Polymerase kit (TaKaRa, Japan). The primer pairs are ITS2-F: 5′-[…]-3′, ITS2-R: 5′-[…]-3′ (SEQ ID NOs 1 and 2, respectively). ITS2 amplicons were generated with 38 cycles of 3-step PCR: 98° C. 10 s, 59° C. 10 s, and 72° C. 30 s. PCR samples were then sequenced on the Illumina MiSeq PE300 platform (2×300 bp, BGI, China), 151,524±97,694 (number±SD) clean sequences obtained on average (sequence statistics in Table 4).
Raw reads were filtered by SOAPnuke (v 1.5.3) (web site: soap.genomics.org.cn/) developed by BGI as follows: (i) adaptors removed, (ii) read removed if N base is more than 3% of the read, (iii) read removed if bases with quality low than 20 were more than 40% of read, (iv) all duplicates removed. Quality control and data analysis were further implemented in PIPITS (v 1.4.5) 31. Briefly, PIPITS_PREP prepares raw reads from Illumina MiSeq sequencers for ITS extraction; PIPITS_FUNITS extracts ITS2 from the reads; and PIPITS_PROCESS analyses the reads to produce operational taxonomic unit (OTU) abundance tables and the RDP taxonomic assignment table for downstream analysis. The quality trimmed and ITS2 extracted reads were aligned to fungi UNITE database exploiting RDP classifier 2.10 for taxonomic assignment to produce operational taxonomic unit (OTU) abundance table (based on sequence identity >97% identity) and phylotype abundance tables at different taxonomic levels, for downstream analysis.
The fungal OTU and phylptype abundance data were imported into R 3.2.3. Richness, diversity, and evenness calculation were performed using the estimated richness function of the phyloseq package. Spearman correlation and their significance were calculated using the cor and cor.test functions in R, respectively. […] Correlation plots were generated using the corrplot package in R. Heat maps were generated using the pheatmap package in R.
To compare differences in the configurations of fungal and bacterial microbiomes between CDI patients and healthy controls, between FMT responders and non-responders, between FMT treatment and vancomycin (STD) treatment, Lefse analyses were performed on the Huttenhower lab Galaxy server (web site: huttenhower.sph.harvard.edu/galaxy/) by importing the […] and bacterial relative abundance values and associated sample metadata, with FDR adjusted p value <0.05 considered significant and effect size calculated. […]

C. difficile = experiment: Antifungal (fluconazole) treatment before FMT in mice with di-colonisation of C. albicans and C. difficile; format: in vivo, mouse (C57BL/6); conditions: recipient mice colonized with C. albicans; fluconazole 0.5 mg/mL in drinking water 4 days before stool infusion
Procedure: Mice was initially colonized with C. albicans (2×10^8 cfu per mouse) after 3 days of antibiotic cocktail treatment in the drinking water, followed by 4 days of fluconazole treatment supplemented in the drinking water (0.5 mg/mL, Sigma). Then the mice were subjected to C. difficile administration (10^7 spores per mice) through gavage after a consecutive 1.5-day antibiotic cocktail- and 1.5-day free water-drinking. Human stool infusion was performed 2 days later after C. difficile gavage. Both C. difficile load and C. albicans load were enumerated by cultivation on Day 0 before FMT and Day 1 after FMT.
Mouse stool were collected both before and after stool infusion. Fecal C. difficile and C. albicans burdens on day 0 before and day 1 after stool infusion were measured by cultivation. Samples were diluted in PBS and respectively plated on taurocholate cycloserine cefoxitin fructose agar (TCCFA) for quantification of C. difficile burden, on Sabouraud dextrose agar (SDA) for quantification of C. albicans load. Stool samples prior to C. albicans colonization from antibiotic-treated mice were plated on SDA to ensure that mice were C. albicans culture negative.

C. albicans = experiment: Enumeration of C. albicans in feces of mice by cultivation on SDA; format: in vivo, mouse (C57BL/6); conditions: day 4 after administration of C. albicans, fluconazole in drinking water
Procedure: Mice was initially colonized with C. albicans (2×10^8 cfu per mouse) after 3 days of antibiotic cocktail treatment in the drinking water, followed by 4 days of fluconazole treatment supplemented in the drinking water (0.5 mg/mL, Sigma). […] Both C. difficile load and C. albicans load were enumerated by cultivation on Day 0 before FMT and Day 1 after FMT.
C. albicans (10231, purchased from ATCC, USA) was administered to mice (2×10^8 cfu per mouse) via gavage after 3-day antibiotic treatment or supplemented in donor stool slurry at the time of donor stool infusion.

Row | SMILES | change in bacterial diversity after treatment (gut bacterial microbiota) | subjects who developed recurrence of CDI (non-responders) ([1]; 16 subjects on FMT, 8 on vancomycin) | subjects cured of CDI / symptom-free with negative stool C. difficile toxin at last follow-up (responders) ([1]; 16 subjects on FMT, 8 on vancomycin, median follow-up of 16 weeks) | Recurrence at week ([1]; individual CDI subject with recurrence, listed as STD) | alterations in fungal richness and diversity during longitudinal follow-up (gut mycobiota; 8 CDI subjects treated with vancomycin) | CDI subjects with an increase in gut fungal richness after treatment (gut mycobiota; 11 out of 16 (FMT), 3 out of 8 (vancomycin)) [%] | CDI subjects with an increase in gut fungal diversity after treatment (gut mycobiota; 13 out of 16 (FMT), 3 out of 8 (vancomycin)) [%] | fungal genera enriched in treatment responders after treatment (LefSe) (gut mycobiota; all follow-up samples of treatment responders) | genus Candida in fungal composition after treatment (gut mycobiota; during follow-up across STD subjects) | relative abundance of fecal C. albicans after treatment (gut mycobiota; last follow-up vs baseline, vancomycin: STD responders) | efficacy of FMT in clearing C. difficile infection after anti-fungal treatment (C. difficile) | C. albicans in feces by cultivation (C. albicans)
1 | CN[C@H](CC(C)C)C(=O)N[C@H]1C(=O)N[C@@H](CC(N)=O)C(=O)N[C@H]2C(=O)N[C@H]3C(=O)N[C@H](C(=O)N[C@H](C(=O)O)c4cc(O)cc(O)c4-c4cc3ccc4O)[C@H](O)c3ccc(c(Cl)c3)Oc3cc2cc(c3O[C@@H]2O[C@H](CO)[C@@H](O)[C@H](O)[C@H]2O[C@H]2C[C@](C)(N)[C@H](O)[C@H](C)O2)Oc2ccc(cc2Cl)[C@H]1O [vancomycin] | significant increase | three | 5 of the 8 and Five of the eight | week 12; also recorded: week 7; also recorded: week 5 | inconsistent alterations | 37.5 | 37.5 | Candida, Talaromyces, Erythrobasidium, Periconia, Stemphylium, Ganoderma | marked expansion | decrease |  | 
2 | OC(Cn1cncn1)(Cn1cncn1)c1ccc(F)cc1F [fluconazole] |  |  |  |  |  |  |  |  |  |  | restored the efficacy of FMT in clearing C. difficile infection | negative
